In data set [1] the test system is Plutella xylostella (Diamond Back Moth). The data set can be described thus: Activity against Plutella xylostella (diamond back moth). The format is in vivo. To be noted: 120 h, application rate 200 ppm, artificial diet, L2 larvae, 5 days after infestation, read-out: effect in at least one of the two categories (mortality or growth inhibition). On the procedure: Example B5: Activity Against Plutella xylostella (Diamond Back Moth)
24-well microtiter plates with artificial diet were treated with aqueous test solutions prepared from 10'000 ppm DMSO stock solutions by pipetting. After drying, the plates were infested with L2 larvae (10 to 15 per well). The samples were assessed for mortality and growth inhibition in comparison to untreated samples 5 days after infestation.

The test system of data set [2] is Diabrotica balteata (Corn Root Worm). The data set can be described thus: Activity against Diabrotica balteata (corn root worm). The format is in vivo. To be noted: 96 h, application rate 200 ppm, maize sprouts, L2 larvae, 4 days after infestation, read-out: effect in at least one of the two categories (mortality or growth inhibition). On the procedure:
Example B2: Activity Against Diabrotica balteata (Corn Root Worm)
Maize sprouts placed onto an agar layer in 24-well microtiter plates were treated with aqueous test solutions prepared from 10'000 ppm DMSO stock solutions by spraying. After drying, the plates were infested with L2 larvae (6 to 10 per well). The samples were assessed for mortality and growth inhibition in comparison to untreated samples 4 days after infestation.

In data set [3] the test system is Spodoptera littoralis (Egyptian Cotton Leaf Worm). The data set can be described thus: Activity against Spodoptera littoralis (Egyptian cotton leaf worm), cotton leaf disc spray. The format is in vivo. To be noted: foliar, 72 h, application rate 200 ppm, cotton leaf discs, L1 larvae, 3 days after infestation. On the procedure:
Example B8: Activity Against Spodoptera littoralis (Egyptian Cotton Leaf Worm)
Cotton leaf discs were placed onto agar in 24-well microtiter plates and sprayed with aqueous test solutions prepared from 10'000 ppm DMSO stock solutions. After drying the leaf discs were infested with five L1 larvae. The samples were assessed for mortality, anti-feeding effect, and growth inhibition in comparison to untreated samples 3 days after infestation. Control of Spodoptera littoralis by a test sample is given when at least one of the categories mortality, anti-feedant effect, and growth inhibition is higher than the untreated sample.

For data set [4], the system named is Myzus persicae (Green Peach Aphid). The data set can be described thus: Activity against Myzus persicae (green peach aphid): systemic activity. The following applies: 144 h, test rate 24 ppm, roots of pea seedlings in test solution, 6 days. The format is in vivo. On the procedure:
Example B4: Activity Against Myzus persicae (Green Peach Aphid): Systemic Activity
Roots of pea seedlings infested with an aphid population of mixed ages were placed directly into aqueous test solutions prepared from 10'000 DMSO stock solutions. The samples were assessed for mortality 6 days after placing seedlings into test solutions.

Data set [5] has the same test system. The experiment in a line: Activity against Myzus persicae (green peach aphid): feeding/contact activity. The format is in vivo. To be noted: foliar, 144 h, application rate 200 ppm, sunflower leaf discs, aphid population of mixed ages, 6 days after infestation. On the procedure: Example B3: Activity Against Myzus persicae (Green Peach Aphid): Feeding/Contact Activity
Sunflower leaf discs were placed onto agar in a 24-well microtiter plate and sprayed with aqueous test solutions prepared from 10'000 ppm DMSO stock solutions. After drying, the leaf discs were infested with an aphid population of mixed ages. The samples were assessed for mortality 6 days after infestation.

Data set [6] relates to Euschistus heros (Neotropical Brown Stink Bug). The data set can be described thus: Activity against Euschistus heros (neotropical brown stink bug). The format is in vivo. The following applies: 120 h, application rate 200 ppm, soybean leaves, N2 nymphs, 5 days after infestation, read-out: effect in at least one of the two categories (mortality or growth inhibition). On the procedure:
Example B9: Activity Against Euschistus heros (Neotropical Brown Stink Bug)
Soybean leaves on agar in 24-well microtiter plates were sprayed with aqueous test solutions prepared from 10'000 ppm DMSO stock solutions. After drying the leaves were infested with N2 nymphs. The samples were assessed for mortality and growth inhibition in comparison to untreated samples 5 days after infestation.

The subject of data set [7] is Bemisia tabaci (Cotton White Fly). The experiment in a line: Activity against Bemisia tabaci (cotton white fly): feeding/contact activity. It is filed as in vivo. The following applies: foliar, 144 h, application rate 200 ppm, cotton leaf discs, adult white flies, 6 days after incubation. The procedure: Example B1: Activity Against Bemisia tabaci (Cotton White Fly): Feeding/Contact Activity
Cotton leaf discs were placed on agar in 24-well microtiter plates and sprayed with aqueous test solutions prepared from 10'000 ppm DMSO stock solutions. After drying the leaf discs were infested with adult white flies. The samples were checked for mortality 6 days after incubation.

One may read the mortality as the share of the test organisms that died. High values mean a strong lethal effect, low ones a weak lethal effect. On to `CCS(=O)(=O)c1cc2ccccc2nc1-c1nnc(-c2cc(C(F)(F)F)ccn2)n1C` [Compound A3, 3-ethylsulfonyl-2-[4-methyl-5-[4-(trifluoromethyl)-2-pyridyl]-1,2,4-triazol-3-yl]quinoline], for which the percent control (mortality or growth inhibition) at 200 ppm in data set [1] was at least 80%. Moreover, the percent effect (mortality or growth inhibition) at 200 ppm in data set [2] is at least 80%. For the same molecule, in data set [3], the percent control (mortality, anti-feedant effect or growth inhibition) at 200 ppm was at least 80%. The same molecule registered a mortality at 24 ppm in data set [4] of at least 80%. Besides, in data set [5], the mortality at 200 ppm was at least 80%.
Take `CCS(=O)(=O)c1cc2ccccc2nc1-c1nnc(-c2cc(C(F)(F)F)ncn2)n1C` [Compound A4, 3-ethylsulfonyl-2-[4-methyl-5-[6-(trifluoromethyl)pyrimidin-4-yl]-1,2,4-triazol-3-yl]quinoline]: the percent control (mortality or growth inhibition) at 200 ppm in data set [1] was at least 80%. The percent effect (mortality or growth inhibition) at 200 ppm in data set [2] is at least 80%. Moreover, the mortality at 200 ppm in data set [5] was at least 80%.
Regarding `CCS(=O)(=O)c1cc2c(cc1-c1nnc(-c3ccc(C(F)(F)F)nc3)n1C)nc(C(F)(F)F)n2C` [Compound A5, 6-ethylsulfonyl-1-methyl-5-[4-methyl-5-[6-(trifluoromethyl)-3-pyridyl]-1,2,4-triazol-3-yl]-2-(trifluoromethyl)benzimidazole], the percent control (mortality, anti-feedant effect or growth inhibition) at 200 ppm in data set [3] is at least 80%. Further, the effect (mortality or growth inhibition) at 200 ppm in data set [6] is at least 80%. The molecule further registered a mortality at 24 ppm in data set [4] of at least 80%. This molecule returned a mortality at 200 ppm in data set [5] of at least 80%.
As to `CCS(=O)(=O)c1cc2nc(C(F)(F)F)sc2cc1-c1nnc(-c2cc(C(F)(F)F)ccn2)n1C` [Compound A6, 5-ethylsulfonyl-6-[4-methyl-5-[4-(trifluoromethyl)-2-pyridyl]-1,2,4-triazol-3-yl]-2-(trifluoromethyl)-1,3-benzothiazole], in data set [1], the percent control (mortality or growth inhibition) at 200 ppm was at least 80%. For the same molecule, the percent effect (mortality or growth inhibition) at 200 ppm in data set [2] was at least 80%. In data set [3], this molecule gave a percent control (mortality, anti-feedant effect or growth inhibition) at 200 ppm of at least 80%. Further, in data set [7], the mortality at 200 ppm was at least 80%.
As to `CCSc1cc2sc(C(F)(F)F)nc2cc1-c1nnc(-c2cc(C(F)(F)F)ccn2)n1C` [Compound A7, 6-ethylsulfanyl-5-[4-methyl-5-[4-(trifluoromethyl)-2-pyridyl]-1,2,4-triazol-3-yl]-2-(trifluoromethyl)-1,3-benzothiazole], the percent effect (mortality or growth inhibition) at 200 ppm in data set [2] is at least 80%. In addition, in data set [3], the percent control (mortality, anti-feedant effect or growth inhibition) at 200 ppm is at least 80%.
Regarding `CCS(=O)(=O)c1cc2c(nnn2C)nc1-c1nnc(-c2cc(C(F)(F)F)ccn2)n1C` [Compound A9, 6-ethylsulfonyl-1-methyl-5-[4-methyl-5-[4-(trifluoromethyl)-2-pyridyl]-1,2,4-triazol-3-yl]triazolo[4,5-b]pyridine], the percent control (mortality or growth inhibition) at 200 ppm in data set [1] was at least 80%. The percent effect (mortality or growth inhibition) at 200 ppm in data set [2] was at least 80%. This molecule gave a percent control (mortality, anti-feedant effect or growth inhibition) at 200 ppm in data set [3] of at least 80%. Also, the effect (mortality or growth inhibition) at 200 ppm in data set [6] is at least 80%. For the same molecule, the mortality at 200 ppm in data set [5] and in data set [7] was at least 80% in each case.
`CCS(=O)(=O)c1cc2nnn(C)c2nc1-c1nnc(-c2cc(C(F)(F)F)ccn2)n1C` [Compound A10, 6-ethylsulfonyl-3-methyl-5-[4-methyl-5-[4-(trifluoromethyl)-2-pyridyl]-1,2,4-triazol-3-yl]triazolo[4,5-b]pyridine]: the percent control (mortality or growth inhibition) at 200 ppm in data set [1] is at least 80%. In addition, in data set [2], the percent effect (mortality or growth inhibition) at 200 ppm is at least 80%. In data set [3], the percent control (mortality, anti-feedant effect or growth inhibition) at 200 ppm was at least 80%. In data set [4], the mortality at 24 ppm is at least 80%. Besides, the mortality at 200 ppm in data set [5] and in data set [7] was at least 80% in each case.
For orientation: melting point means the temperature, or range, at which the solid turns liquid. Regarding `CCS(=O)(=O)c1cc2c(nnn2COC)nc1-c1nnc(-c2cc(C(F)(F)F)ccn2)n1C` [Compound A11, 6-ethylsulfonyl-1-(methoxymethyl)-5-[4-methyl-5-[4-(trifluoromethyl)-2-pyridyl]-1,2,4-triazol-3-yl]triazolo[4,5-b]pyridine], the melting point lay within 176 to 178 °C.
The same measure, in the same setting: under `CCS(=O)(=O)c1cc2[nH]nnc2nc1-c1nnc(-c2cc(C(F)(F)F)ccn2)n1C` [Compound A12, 6-ethylsulfonyl-5-[4-methyl-5-[4-(trifluoromethyl)-2-pyridyl]-1,2,4-triazol-3-yl]-1H-triazolo[4,5-b]pyridine] stands 303 to 305 °C.
As to `CCn1nnc2nc(-c3nnc(-c4cc(C(F)(F)F)ccn4)n3C)c(S(=O)(=O)CC)cc21` [Compound A13, 1-ethyl-6-ethylsulfonyl-5-[4-methyl-5-[4-(trifluoromethyl)-2-pyridyl]-1,2,4-triazol-3-yl]triazolo[4,5-b]pyridine], the percent control (mortality or growth inhibition) at 200 ppm in data set [1] is at least 80%. Moreover, the effect (mortality or growth inhibition) at 200 ppm in data set [6] was at least 80%. Moreover, in data set [4], the mortality at 24 ppm was at least 80%. Also, in data set [5], the mortality at 200 ppm was at least 80%.
For `CCS(=O)(=O)c1cc2c(nnn2CCF)nc1-c1nnc(-c2cc(C(F)(F)F)ccn2)n1C` [Compound A14, 6-ethylsulfonyl-1-(2-fluoroethyl)-5-[4-methyl-5-[4-(trifluoromethyl)-2-pyridyl]-1,2,4-triazol-3-yl]triazolo[4,5-b]pyridine], the percent control (mortality or growth inhibition) at 200 ppm in data set [1] is at least 80%. The effect (mortality or growth inhibition) at 200 ppm in data set [6] was at least 80%. For the same molecule, the mortality at 24 ppm in data set [4] is at least 80%. Also, in data set [5], the mortality at 200 ppm is at least 80%.
Turning to `CCS(=O)(=O)c1cc2nnn(CCF)c2nc1-c1nnc(-c2cc(C(F)(F)F)ccn2)n1C` [Compound A15, 6-ethylsulfonyl-3-(2-fluoroethyl)-5-[4-methyl-5-[4-(trifluoromethyl)-2-pyridyl]-1,2,4-triazol-3-yl]triazolo[4,5-b]pyridine], the mortality at 24 ppm in data set [4] is at least 80%.
In turn, `CCS(=O)(=O)c1cc2nn(COC)nc2nc1-c1nnc(-c2cc(C(F)(F)F)ccn2)n1C` [Compound A17, 6-ethylsulfonyl-2-(methoxymethyl)-5-[4-methyl-5-[4-(trifluoromethyl)-2-pyridyl]-1,2,4-triazol-3-yl]triazolo[4,5-b]pyridine] gave a mortality at 24 ppm in data set [4] of at least 80%.
As to `CCS(=O)(=O)c1cc2nn(C)nc2nc1-c1nnc(-c2cc(C(F)(F)F)ccn2)n1C` [Compound A18, 6-ethylsulfonyl-2-methyl-5-[4-methyl-5-[4-(trifluoromethyl)-2-pyridyl]-1,2,4-triazol-3-yl]triazolo[4,5-b]pyridine], in data set [6], the effect (mortality or growth inhibition) at 200 ppm was at least 80%. In data set [4], this molecule had a mortality at 24 ppm of at least 80%. Also, the mortality at 200 ppm in data set [5] was at least 80%.
In the case of `CCS(=O)(=O)c1cc2c(nc1-c1nnc(-c3cc(C(F)(F)F)ccn3)n1C)CC(C)(C)O2` [Compound A19, 6-ethylsulfonyl-2,2-dimethyl-5-[4-methyl-5-[4-(trifluoromethyl)-2-pyridyl]-1,2,4-triazol-3-yl]-3H-furo[3,2-b]pyridine], the percent control (mortality or growth inhibition) at 200 ppm in data set [1] was at least 80%. Besides, in data set [3], the percent control (mortality, anti-feedant effect or growth inhibition) at 200 ppm was at least 80%.
With `CCS(=O)(=O)c1cc2c(nc1-c1nnc(-c3cc(C(F)(F)F)ncn3)n1C)CC(C)(C)O2` [Compound A20, 6-ethylsulfonyl-2,2-dimethyl-5-[4-methyl-5-[6-(trifluoromethyl)pyrimidin-4-yl]-1,2,4-triazol-3-yl]-3H-furo[3,2-b]pyridine], the percent effect (mortality or growth inhibition) at 200 ppm in data set [2] was at least 80%. In addition, the percent control (mortality, anti-feedant effect or growth inhibition) at 200 ppm in data set [3] was at least 80%. Moreover, in data set [6], the effect (mortality or growth inhibition) at 200 ppm is at least 80%. Besides, the mortality at 24 ppm in data set [4] is at least 80%.

The values above are taken from patent US10421740B2, “Pesticidally active heterocyclic derivatives with sulphur containing substituents” (SYNGENTA PARTICIPATIONS AG, priority 2016, dated 2019).
